The text below walks through data of ChEMBL document CHEMBL1268836, “Rational design of novel pyrrolidine derivatives as orally active neurokinin-3 receptor antagonists” (Bioorg Med Chem Lett, 2010).

pKi: −log10 of the molar value. ≈ marks a conversion by molar mass, not a printed value. Calls of active or inactive are those of the source. The rule behind the calls is not given here.

Series [1] can be described thus: Aqueous solubility of the compound. The format is physicochemical.
Series [2] can be described thus: Lipophilicity, log D of the compound. It is filed as physicochemical. The note with it: octanol/water.
Series [3] deals with Gerbillinae. The series can be described thus: Antipsychotic activity gerbils assessed as reversal of senktide-induced locomotor activity at 30 mg/kg, po administered before senktide challenge. Further details: dose 30 mg/kg. The format is functional, organism-based.
A short description of series [4]: Ratio of drug level in brain to plasma in gerbils at 30 mg/kg, po. It is filed as ADME, organism-based. Further details: dose 30 mg/kg, route oral. The note with it: gerbillinae, read-out: BPR.
Series [5] has as its system Gerbillinae. The series can be described thus: Antipsychotic activity gerbils assessed as reversal of senktide-induced locomotor activity at 100 mg/kg, po administered before senktide challenge. It is filed as functional, organism-based. Further details: dose 100 mg/kg.
The target of series [6] is Substance-P receptor (Homo sapiens, UniProt P25103). The series can be described thus: Displacement of [3H]substance P from human neurokinin NK1 receptor expressed in CHO cell. The format is cell-based.
The target in series [7] is T1, Neuromedin-K receptor (Homo sapiens, UniProt P29371).
T1 sequence (P29371 whole entry): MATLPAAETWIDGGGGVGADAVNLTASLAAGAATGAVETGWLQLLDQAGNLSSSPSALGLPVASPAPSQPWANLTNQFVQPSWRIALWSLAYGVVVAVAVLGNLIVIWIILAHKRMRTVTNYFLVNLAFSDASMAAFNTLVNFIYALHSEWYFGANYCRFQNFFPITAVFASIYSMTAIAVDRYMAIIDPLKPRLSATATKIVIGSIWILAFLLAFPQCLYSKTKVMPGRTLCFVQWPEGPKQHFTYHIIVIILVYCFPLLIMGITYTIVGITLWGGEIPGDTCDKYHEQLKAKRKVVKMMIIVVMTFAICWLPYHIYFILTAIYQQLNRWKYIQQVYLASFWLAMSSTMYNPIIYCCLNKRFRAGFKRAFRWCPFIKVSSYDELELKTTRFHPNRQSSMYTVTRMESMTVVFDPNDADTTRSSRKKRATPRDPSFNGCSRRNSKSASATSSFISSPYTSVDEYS
The series can be described thus: Displacement of [3H]SR142801 from human neurokinin NK3 receptor expressed in HEK293-EBNA cells. The note with it: for pKi: read-out: Ki; for Ki: hek293-ebna. The format is cell-based.

Chain of Substance-P receptor (P25103 whole entry): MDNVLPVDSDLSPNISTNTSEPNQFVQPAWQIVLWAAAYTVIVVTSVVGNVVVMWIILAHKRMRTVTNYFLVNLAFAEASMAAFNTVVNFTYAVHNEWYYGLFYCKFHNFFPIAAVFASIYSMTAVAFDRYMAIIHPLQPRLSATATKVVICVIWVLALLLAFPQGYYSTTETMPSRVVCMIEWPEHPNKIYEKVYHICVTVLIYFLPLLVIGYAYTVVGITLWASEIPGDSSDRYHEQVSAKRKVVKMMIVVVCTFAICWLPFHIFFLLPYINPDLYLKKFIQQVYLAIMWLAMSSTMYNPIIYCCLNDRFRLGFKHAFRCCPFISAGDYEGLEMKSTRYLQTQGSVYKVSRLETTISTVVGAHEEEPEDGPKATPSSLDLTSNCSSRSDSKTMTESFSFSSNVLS

As for `CN(C)CCN1CCN(C(=O)N2C[C@H](c3ccc(Cl)c(Cl)c3)[C@@H](N(C)Cc3ccc(C(F)(F)F)c(F)c3)C2)CC1`, the solubility in series [1] is 495 µg/mL (≈ 819 µM). The logD in series [2] stood at 2.9. For the same molecule, the result in series [3] was Active. Besides, the Kp in series [4] is 1.6.

For `CC(=O)N(C)C1(c2ccccc2)CCN(CCC[C@]2(c3ccc(Cl)c(Cl)c3)CCCN(C(=O)c3ccccc3)C2)CC1`, the result in series [5] was Active. For the molecule `CN(C(=O)C(C)(C)c1cc(C(F)(F)F)cc(C(F)(F)F)c1)[C@H]1CN(C(=O)N(CCO)CCO)C[C@@H]1c1ccc(F)cc1` (racemic), the negative logarithm of the Ki (pKi) is 8.96 in series [6] and 6.72 in series [7]. For the molecule `CC(=O)N1CCN(C(=O)N2C[C@H](c3ccc(F)cc3)[C@@H](N(C)C(=O)C(C)(C)c3cc(C(F)(F)F)cc(C(F)(F)F)c3)C2)CC1` (racemic), the values for the pKi in series [6] and in series [7] were 8.85 and 6.43, respectively. Take `CN(C(=O)C(C)(C)c1cc(C(F)(F)F)cc(C(F)(F)F)c1)[C@H]1CN(C(=O)N2CCN(S(C)(=O)=O)CC2)C[C@@H]1c1ccc(F)cc1` (racemic): the values for the negative logarithm of the Ki (pKi) in series [6] and in series [7] were 8.68 and 6.78, respectively. In the case of `CN(C(=O)C(C)(C)c1cc(C(F)(F)F)cc(C(F)(F)F)c1)[C@H]1CN(C(=O)N2CCN(S(C)(=O)=O)CC2)C[C@@H]1c1ccccc1` (racemic), the pKi in series [7] is 7.00.

Take `CN(C(=O)Cc1cc(C(F)(F)F)cc(C(F)(F)F)c1)[C@H]1CN(C(=O)N2CCN(S(C)(=O)=O)CC2)C[C@@H]1c1ccccc1` (racemic): in series [7], the Ki result was “Not Active”.

`CN(CC(C)(C)c1cc(C(F)(F)F)cc(C(F)(F)F)c1)[C@H]1CN(C(=O)N2CCN(S(C)(=O)=O)CC2)C[C@@H]1c1ccccc1` (racemic): the Ki entry in series [7] is reported as “Not Active”.

On to `CN(C(=O)C(C)(C)c1cc(C(F)(F)F)cc(C(F)(F)F)c1)[C@H]1CNC[C@@H]1c1ccc(F)cc1` (racemic), for which the pKi in series [6] was 9.05. Moreover, the Ki entry in series [7] was “Not Active”. As to `CN(C(=O)C(C)(C)c1cc(C(F)(F)F)cc(C(F)(F)F)c1)[C@H]1CN(C(=O)NCCO)C[C@@H]1c1ccc(F)cc1` (racemic), the figures for the pKi in series [6] and in series [7] were 9.22 and 6.53, respectively.

Take `CN(C(=O)C(C)(C)c1cc(C(F)(F)F)cc(C(F)(F)F)c1)[C@H]1CN(Cc2ccccc2)C[C@@H]1c1ccc(F)cc1` (racemic): the Ki entry in series [7] is “Not Active”.

Turning to `CN(CCc1cc(C(F)(F)F)cc(C(F)(F)F)c1)[C@H]1CN(C(=O)N2CCN(S(C)(=O)=O)CC2)C[C@@H]1c1ccccc1` (racemic), in series [7], the Ki entry was “Not Active”. Still for that read-out and setting: the result for `CN(C(=O)c1cc(C(F)(F)F)cc(C(F)(F)F)c1)[C@H]1CN(C(=O)N2CCN(S(C)(=O)=O)CC2)C[C@@H]1c1ccccc1` (racemic) reads “Not Active”; that for `CS(=O)(=O)N1CCN(C(=O)N2C[C@H](NC(=O)c3cc(C(F)(F)F)cc(C(F)(F)F)c3)[C@@H](c3ccccc3)C2)CC1` (racemic), “Not Active”. As for `CN(Cc1cc(C(F)(F)F)cc(C(F)(F)F)c1)[C@H]1CN(C(=O)N2CCN(S(C)(=O)=O)CC2)C[C@@H]1c1ccccc1` (racemic), in series [7], the pKi was 5.89. As to `CN(Cc1ccc(C(F)(F)F)c(F)c1)[C@H]1CN(C(=O)N2CCN(S(C)(=O)=O)CC2)C[C@@H]1c1ccc(Cl)c(Cl)c1` (racemic), in series [1], the solubility was below 1 µg/mL. Besides, the logD in series [2] is above 4.
